Calls of active or inactive are those of the source.
Experiments:
[1] = tested on: Streptococcus sp. 'group A'; assay: growth inhibition of control SK(-) GAS strain, dose response, counter-screen for streptokinase expression inhibitor project, luminescence, kanamycin, BacTiterGlo, confirmation (AID 1900); assay type: functional, organism-based
[2] = molecular target: Dual specificity protein phosphatase 3 (Homo sapiens, UniProt P51452); assay: SAR VHR1 Fluorescent Assay for In Vitro dose response studies Set 2. [Related pubchem assays (depositor defined):AID1654, AID1661, AID1878]; assay type: functional
Dual specificity protein phosphatase 3, sequence (P51452 whole entry): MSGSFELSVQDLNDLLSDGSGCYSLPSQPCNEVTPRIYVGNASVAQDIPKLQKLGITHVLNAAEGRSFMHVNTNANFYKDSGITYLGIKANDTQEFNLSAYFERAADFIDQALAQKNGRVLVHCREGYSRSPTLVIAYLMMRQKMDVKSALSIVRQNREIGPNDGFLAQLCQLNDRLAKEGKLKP

Streptococcus = assay: Group A Streptococcus viability loss, dose response, counter-screen for streptokinase expression inhibitor project, luminescence, BacTiterGlo (AID 1915); assay type: functional, organism-based;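 also: potency for reduction of bacterial viability or growth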
[3] = molecular target: T1, Kappa-type opioid receptor (Homo sapiens, UniProt P41145); assay type: functional
T1 sequence (P41145 whole entry): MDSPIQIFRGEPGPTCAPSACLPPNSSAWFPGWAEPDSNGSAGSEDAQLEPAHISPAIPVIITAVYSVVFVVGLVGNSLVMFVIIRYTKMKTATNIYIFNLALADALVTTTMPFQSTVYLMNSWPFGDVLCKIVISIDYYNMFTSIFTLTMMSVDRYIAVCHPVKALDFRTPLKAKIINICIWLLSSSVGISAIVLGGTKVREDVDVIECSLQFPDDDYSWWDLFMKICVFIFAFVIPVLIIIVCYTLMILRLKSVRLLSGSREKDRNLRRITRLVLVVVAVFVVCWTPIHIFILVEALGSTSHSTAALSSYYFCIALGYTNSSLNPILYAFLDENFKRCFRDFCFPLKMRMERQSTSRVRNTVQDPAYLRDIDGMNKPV

[4] = molecular target: T1, Kappa-type opioid receptor; assay: KOR agonist analogs, imaging readout, SAR follow-up, image-based (AID 2359); assay type: functional
Streptokinase A = molecular target: T2, Streptokinase A (Streptococcus pyogenes serotype M1, UniProt P10520); assay: S. pyogenes streptokinase expression inhibitors, potency, dose response, plasminogen activation absorbance, OD405 (AID 1914); assay type: functional, Streptococcus pyogenes M1 GAS;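 also: secreted streptokinase activity via plasminogen activation per viability signal from cell pellet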
T2 sequence (P10520 whole entry): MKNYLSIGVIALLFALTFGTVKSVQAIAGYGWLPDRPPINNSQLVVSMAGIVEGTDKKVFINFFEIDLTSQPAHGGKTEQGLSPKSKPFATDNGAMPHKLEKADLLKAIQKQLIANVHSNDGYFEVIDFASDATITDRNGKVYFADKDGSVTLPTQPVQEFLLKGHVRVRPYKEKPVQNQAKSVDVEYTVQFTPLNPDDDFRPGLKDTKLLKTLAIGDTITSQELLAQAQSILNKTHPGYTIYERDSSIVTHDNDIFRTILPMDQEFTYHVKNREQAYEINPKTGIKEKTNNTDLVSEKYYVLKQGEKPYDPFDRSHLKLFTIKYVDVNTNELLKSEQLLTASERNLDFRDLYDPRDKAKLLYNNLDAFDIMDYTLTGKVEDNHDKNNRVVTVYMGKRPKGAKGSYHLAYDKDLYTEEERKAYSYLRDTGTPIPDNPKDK

[5] = molecular target: T1, Kappa-type opioid receptor; assay: KOR antagonists by imaging, SAR follow-up, image-based (AID 2348); assay type: functional
[6] = molecular target: T3, Delta-type opioid receptor (Homo sapiens, UniProt P41143); assay: DOR antagonists, SAR follow-up, image-based (AID 2357); assay type: functional
T3 sequence (P41143 whole entry): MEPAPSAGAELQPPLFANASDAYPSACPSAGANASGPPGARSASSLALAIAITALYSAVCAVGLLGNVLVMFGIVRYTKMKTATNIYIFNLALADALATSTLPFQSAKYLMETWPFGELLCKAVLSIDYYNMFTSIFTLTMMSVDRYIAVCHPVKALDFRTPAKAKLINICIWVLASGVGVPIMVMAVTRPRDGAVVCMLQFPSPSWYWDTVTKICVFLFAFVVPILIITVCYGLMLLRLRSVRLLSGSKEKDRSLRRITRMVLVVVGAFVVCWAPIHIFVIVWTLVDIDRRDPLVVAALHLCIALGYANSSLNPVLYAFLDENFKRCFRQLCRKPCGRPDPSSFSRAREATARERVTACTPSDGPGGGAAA

[7] = molecular target: T1, Kappa-type opioid receptor; assay: kappa opioid receptor blockers, cell-based, luminescence, beta-arrestin, SAR follow-up (AID 2285); assay type: functional
[8] = molecular target: T3, Delta-type opioid receptor; assay: DOR agonists, SAR follow-up, image-based (AID 2370); assay type: functional
Beta-galactosidase = Beta-galactosidase (Escherichia coli, UniProt Q8VNN2); assay type: functional
Beta-galactosidase, sequence (Q8VNN2 whole entry): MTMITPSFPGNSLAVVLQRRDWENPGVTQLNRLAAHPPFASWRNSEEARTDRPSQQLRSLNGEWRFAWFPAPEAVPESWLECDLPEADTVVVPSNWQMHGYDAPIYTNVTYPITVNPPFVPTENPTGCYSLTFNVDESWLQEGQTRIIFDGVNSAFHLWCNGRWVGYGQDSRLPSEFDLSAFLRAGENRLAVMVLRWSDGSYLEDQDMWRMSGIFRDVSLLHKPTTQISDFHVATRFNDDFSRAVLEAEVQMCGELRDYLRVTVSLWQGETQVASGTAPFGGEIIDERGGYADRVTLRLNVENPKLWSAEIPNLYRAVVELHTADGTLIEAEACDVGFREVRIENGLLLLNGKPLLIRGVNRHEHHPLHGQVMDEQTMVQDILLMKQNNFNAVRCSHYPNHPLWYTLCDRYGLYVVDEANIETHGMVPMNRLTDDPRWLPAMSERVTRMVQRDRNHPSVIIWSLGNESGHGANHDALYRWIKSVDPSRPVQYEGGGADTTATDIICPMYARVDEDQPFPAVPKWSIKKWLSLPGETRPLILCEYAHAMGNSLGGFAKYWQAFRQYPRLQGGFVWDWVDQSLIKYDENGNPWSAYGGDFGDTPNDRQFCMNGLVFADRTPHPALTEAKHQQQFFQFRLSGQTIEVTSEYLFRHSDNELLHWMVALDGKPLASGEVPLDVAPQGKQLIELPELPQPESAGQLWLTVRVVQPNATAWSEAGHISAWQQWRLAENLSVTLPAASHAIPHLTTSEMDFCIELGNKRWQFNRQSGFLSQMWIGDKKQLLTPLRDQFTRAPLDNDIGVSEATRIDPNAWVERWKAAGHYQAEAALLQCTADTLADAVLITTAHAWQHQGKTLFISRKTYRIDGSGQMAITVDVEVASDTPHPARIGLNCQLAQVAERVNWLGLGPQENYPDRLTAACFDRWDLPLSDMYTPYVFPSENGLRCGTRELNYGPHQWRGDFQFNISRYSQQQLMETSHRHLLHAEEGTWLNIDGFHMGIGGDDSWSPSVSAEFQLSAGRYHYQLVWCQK

[9] = molecular target: T4, Tyrosine-protein phosphatase non-receptor type 7 (Homo sapiens, UniProt P35236); assay: SAR analysis of chemical inhibitors of HePTP using a Fluorescent assay - Set 2. [Related pubchem assays (depositor defined):AID1059, AID1077, AID1661, AID2085, AID521]; assay type: functional
T4 sequence (P35236 whole entry): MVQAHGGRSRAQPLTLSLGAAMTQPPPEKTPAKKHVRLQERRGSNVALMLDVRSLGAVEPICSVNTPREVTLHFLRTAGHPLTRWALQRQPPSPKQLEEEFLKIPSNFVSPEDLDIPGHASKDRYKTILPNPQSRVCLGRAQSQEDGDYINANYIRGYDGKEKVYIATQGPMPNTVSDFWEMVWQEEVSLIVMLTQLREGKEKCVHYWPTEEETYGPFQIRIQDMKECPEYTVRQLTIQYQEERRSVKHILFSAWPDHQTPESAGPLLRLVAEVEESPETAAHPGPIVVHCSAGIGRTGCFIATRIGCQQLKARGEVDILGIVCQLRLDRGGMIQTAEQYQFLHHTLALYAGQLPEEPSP

Mu-type opioid receptor [10] = molecular target: T5, Mu-type opioid receptor (Homo sapiens, UniProt P35372); assay: MOR antagonists, SAR follow-up, image-based (AID 2420); assay type: functional;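 also: compounds added before stimulation of receptor with agonist DAMGO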
T5 sequence (P35372 whole entry): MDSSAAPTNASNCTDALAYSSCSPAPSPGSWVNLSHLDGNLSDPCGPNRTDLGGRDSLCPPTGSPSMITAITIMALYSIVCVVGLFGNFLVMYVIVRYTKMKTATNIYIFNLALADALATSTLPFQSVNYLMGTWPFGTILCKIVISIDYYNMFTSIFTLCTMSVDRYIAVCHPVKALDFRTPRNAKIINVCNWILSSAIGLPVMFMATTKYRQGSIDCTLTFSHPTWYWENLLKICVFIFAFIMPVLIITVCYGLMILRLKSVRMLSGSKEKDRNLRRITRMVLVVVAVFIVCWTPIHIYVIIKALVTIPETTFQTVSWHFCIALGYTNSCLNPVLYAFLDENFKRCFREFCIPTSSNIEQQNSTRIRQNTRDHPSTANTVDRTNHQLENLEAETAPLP

Mu-type opioid receptor [11] = molecular target: T5, Mu-type opioid receptor; assay: MOR agonists by imaging, SAR follow-up, image-based (AID 2352); assay type: functional
[12] = molecular target: T1, Kappa-type opioid receptor; assay type: functional; remark: listed apart in the source
Mu-type opioid receptor [13] = molecular target: T5, Mu-type opioid receptor; assay: SAR Analysis of Antagonists of the MOR Receptor using an Image-Based Assay - Set 3. [Related pubchem assays (depositor defined):AID1777, AID1785, AID1786, AID1966, AID2133, AID2136, AID2284, AID2285, AID2420]; assay type: functional
[14] = molecular target: T1, Kappa-type opioid receptor; assay: SAR analysis of Antagonists of the Kappa Opioid Receptor (KOR) using an Image-Based Assay - Set 3. [Related pubchem assays (depositor defined):AID1777, AID1785]; assay type: functional
[15] = molecular target: T1, Kappa-type opioid receptor; assay: SAR analysis of small molecule antagonists of the kappa opioid receptor via a luminescent beta-arrestin assay - Set 3. [Related pubchem assays (depositor defined):AID1777, AID1778, AID1785, AID1786, AID1966, AID2133, AID2136, AID2285, AID2495]; assay type: functional
[16] = molecular target: T3, Delta-type opioid receptor; assay: SAR Analysis of Antagonists of the DOR Receptor using an Image-Based Assay - Set 3. [Related pubchem assays (depositor defined):AID1777, AID1785]; assay type: functional
Hexokinase = Hexokinase (Trypanosoma brucei, UniProt Q38C41); assay: Confirmation assay for inhibitors of Trypanosoma brucei hexokinase 1-Analogue-first series. [Related pubchem assays (depositor defined):AID1430, AID1632, AID2516, AID2560, AID2579, AID2600, AID449725, AID492951]; assay type: functional
Hexokinase, sequence (Q38C41 whole entry): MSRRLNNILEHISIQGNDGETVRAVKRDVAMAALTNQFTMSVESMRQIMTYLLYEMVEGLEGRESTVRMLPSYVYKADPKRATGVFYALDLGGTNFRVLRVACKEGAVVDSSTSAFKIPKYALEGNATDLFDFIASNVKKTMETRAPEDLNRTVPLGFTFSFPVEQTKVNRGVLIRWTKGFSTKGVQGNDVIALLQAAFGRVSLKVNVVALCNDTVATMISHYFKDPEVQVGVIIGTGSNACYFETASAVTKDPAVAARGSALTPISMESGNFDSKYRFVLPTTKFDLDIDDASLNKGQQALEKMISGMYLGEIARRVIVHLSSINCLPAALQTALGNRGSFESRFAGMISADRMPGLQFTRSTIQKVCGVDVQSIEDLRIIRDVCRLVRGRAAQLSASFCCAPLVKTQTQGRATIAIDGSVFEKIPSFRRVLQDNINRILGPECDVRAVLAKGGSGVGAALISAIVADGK

[17] = molecular target: Lysine-specific demethylase 4C (Homo sapiens, UniProt Q9H3R0); assay: GASC-1 (JMJD2C) histone demethylase inhibitors, dose response, biochemical, DELFIA europium, cherry-picked samples (AID 488835); assay type: functional
Lysine-specific demethylase 4C, sequence (Q9H3R0 whole entry): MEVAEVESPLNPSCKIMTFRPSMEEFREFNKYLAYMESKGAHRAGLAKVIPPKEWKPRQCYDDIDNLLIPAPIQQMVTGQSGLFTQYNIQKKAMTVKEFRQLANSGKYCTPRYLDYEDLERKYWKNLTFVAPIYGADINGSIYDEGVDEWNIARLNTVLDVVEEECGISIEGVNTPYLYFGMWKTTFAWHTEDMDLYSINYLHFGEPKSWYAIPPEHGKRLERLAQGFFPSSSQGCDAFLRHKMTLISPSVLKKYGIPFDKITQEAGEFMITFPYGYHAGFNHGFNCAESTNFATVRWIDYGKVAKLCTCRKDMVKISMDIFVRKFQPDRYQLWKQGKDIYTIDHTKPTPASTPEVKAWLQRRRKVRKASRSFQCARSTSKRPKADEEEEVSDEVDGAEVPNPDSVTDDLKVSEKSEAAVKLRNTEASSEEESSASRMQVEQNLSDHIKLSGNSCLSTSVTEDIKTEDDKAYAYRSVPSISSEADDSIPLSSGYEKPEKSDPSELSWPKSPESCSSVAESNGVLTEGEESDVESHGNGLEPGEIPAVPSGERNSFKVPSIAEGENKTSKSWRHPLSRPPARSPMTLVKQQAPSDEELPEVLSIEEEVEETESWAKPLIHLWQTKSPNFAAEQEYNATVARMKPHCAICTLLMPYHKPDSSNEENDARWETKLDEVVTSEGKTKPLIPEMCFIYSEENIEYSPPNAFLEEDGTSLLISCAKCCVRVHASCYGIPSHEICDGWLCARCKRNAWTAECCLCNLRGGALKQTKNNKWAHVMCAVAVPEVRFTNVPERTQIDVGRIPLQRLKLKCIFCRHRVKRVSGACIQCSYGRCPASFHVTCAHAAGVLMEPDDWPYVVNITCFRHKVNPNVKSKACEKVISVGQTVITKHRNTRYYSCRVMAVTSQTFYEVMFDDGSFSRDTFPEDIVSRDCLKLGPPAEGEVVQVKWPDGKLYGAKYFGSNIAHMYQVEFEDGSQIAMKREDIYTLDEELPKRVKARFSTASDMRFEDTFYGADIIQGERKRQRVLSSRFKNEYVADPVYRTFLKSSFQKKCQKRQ

cells = assay type: functional
[18] = Luminescence Cell-Based Dose Response HTS to Identify Inhibitors of 5'UTR Stem-Loop Driven Prion Protein mRNA Translation in H4 Neuroglioblastoma Cells. [Related pubchem assays: 1827 (Project Summary), 1813 (Primary HTS)]; assay type: functional
[19] = molecular target: T6, Mannose-6-phosphate isomerase (Homo sapiens, UniProt P34949); assay: human PMI inhibitors, high substrate, primary screen, biochemical, fluorescence intensity, high mannose 6-phosphate (AID 1220)
T6 sequence (P34949 whole entry): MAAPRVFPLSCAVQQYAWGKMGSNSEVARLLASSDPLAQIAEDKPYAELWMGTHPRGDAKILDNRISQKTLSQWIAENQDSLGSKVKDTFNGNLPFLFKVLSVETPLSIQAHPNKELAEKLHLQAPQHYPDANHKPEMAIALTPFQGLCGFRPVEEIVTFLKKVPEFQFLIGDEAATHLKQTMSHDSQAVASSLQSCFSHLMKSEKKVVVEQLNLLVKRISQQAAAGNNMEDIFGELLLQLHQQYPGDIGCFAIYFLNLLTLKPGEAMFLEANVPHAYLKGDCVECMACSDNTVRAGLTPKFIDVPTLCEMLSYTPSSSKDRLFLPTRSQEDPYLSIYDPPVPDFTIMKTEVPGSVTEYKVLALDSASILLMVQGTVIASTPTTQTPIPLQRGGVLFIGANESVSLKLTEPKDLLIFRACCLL

Protein Wnt-3a = Protein Wnt-3a (Mus musculus, UniProt P27467); assay: Wnt3a-driven reporter signaling inhibition, dose response, selectivity assay for Gli-SUFU antagonist project, Wnt-LIGHT cells, luminescence (AID 651570); assay type: functional; conditions: read-out: IC50_Mean;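 also: Wnt-LIGHT reporter cells stimulated with conditioned medium from Wnt3a-producing cells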
Protein Wnt-3a, sequence (P27467 whole entry): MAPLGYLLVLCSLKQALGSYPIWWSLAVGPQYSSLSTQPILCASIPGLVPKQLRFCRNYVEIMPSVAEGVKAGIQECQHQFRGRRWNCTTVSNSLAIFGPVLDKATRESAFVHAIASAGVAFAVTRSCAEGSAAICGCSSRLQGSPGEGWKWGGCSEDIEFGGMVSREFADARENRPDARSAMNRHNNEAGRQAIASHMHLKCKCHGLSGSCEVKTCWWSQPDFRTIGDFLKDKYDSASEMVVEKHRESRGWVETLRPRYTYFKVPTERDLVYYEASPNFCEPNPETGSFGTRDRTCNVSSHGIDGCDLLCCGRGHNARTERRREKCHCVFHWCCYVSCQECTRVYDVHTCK

[20] = THP-1 cell cytotoxicity, dose response, cytotoxicity control for non-replicating M. tuberculosis project (AID 489025); assay type: functional
[21] = molecular target: T6, Mannose-6-phosphate isomerase; assay: inhibitors of human PMI, primary screen, biochemical, fluorescence intensity, coupled assay (AID 1209)
[22] = inhibitors of intracellular T. cruzi replication, confirmation, NIH3T3 host cells, beta-gal luminescence (AID 2044); assay type: functional, cell-based;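 also: intracellular parasites grown in NIH/3T3 mouse fibroblasts as host cells; luminescent beta-galactosidase reporter signal from transgenic T. cruzi replicating inside host cells; inhibitors lower the luminescence signal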
[23] = cytotoxicity toward NIH3T3 fibroblasts, dose response, counter-screen, cell-based, ATP luminescence, mouse fibroblasts (AID 2010); assay type: functional;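 also: cells exposed to compound for about 90 hours before reading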
[24] = Vero E6 cell cytotoxicity, dose response, cytotoxicity control for non-replicating M. tuberculosis project, secondary assay (AID 492998); assay type: functional, VeroE6; conditions: Vero C1008
[25] = inhibitors of firefly luciferase expression or activity, dose response, H4 neuroglioma cells, luminescence (AID 1990); assay type: functional, cell-based
[26] = HepG2 cell cytotoxicity, dose response, cytotoxicity control for non-replicating M. tuberculosis project (AID 489018); assay type: functional; conditions: Mycobacterium tuberculosis
[27] = inhibitors of SNCA 5'UTR-driven reporter translation, confirmation, H4 neuroglioma cells, luminescence (AID 1988); assay type: functional, cell-based
INS1 = assay: beta cell apoptosis inhibitors, cytokine rescue, dose response, luminescence, retest (AID 449756); assay type: functional, cell-based; conditions: Rattus norvegicus;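 also: cell death triggered by IL-1 beta plus TNF-alpha plus IFN-gamma mixture; protective hits raise ATP signal compared with cytokine alone wells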

O=C(NC(NC(=S)Nc1c(Cl)cccc1Cl)C(Cl)(Cl)Cl)OCc1ccccc1 (centres undefined)
active: EC50 [1] 1.65 µM | IC50 [2] 90 µM | EC50 (Streptococcus) 18 µM | EC50 (Streptokinase A) 3.01 µM | IC50 [5] 0.74 µM | IC50 [7] 1.15 µM | IC50 [9] 63 µM | IC50 (Mu-type opioid receptor [10]) 8.43 µM | IC50 [12] 3.48 µM
inactive: EC50 [4] > 32 µM | IC50 [6] > 32 µM | EC50 [8] > 32 µM | EC50 (Beta-galactosidase) > 31.5 µM | EC50 (Mu-type opioid receptor [11]) > 32 µM
2.04 µM: IC50 [3]

Cc1ccc(CN(CCNC(=O)c2ccc(CNS(=O)(=O)c3ccc(C)cc3)cc2)C(C)C)cc1
active: IC50 [14] 0.246 µM | IC50 [15] 1.17 µM
inactive: IC50 (Mu-type opioid receptor [13]) > 32 µM | IC50 [16] > 32 µM

COc1ccc(C(=O)Nc2c(C(=O)O)ccc(Cl)c2Cl)cc1
inactive: IC50 (Hexokinase) > 25 µM

Cc1cc(N/N=C/c2ccc(O)cc2O)nc(-n2nc(C)cc2C)n1
active: AC50 [17] 2.7 µM | IC50 (cells) 0.18 µM | EC50 [18] 11.4 µM | CC50 [20] 8.18 µM | EC50 [22] 2.05 µM | CC50 [24] 3.72 µM | EC50 [25] 10.9 µM | CC50 [26] 11.4 µM | EC50 [27] 11.2 µM | AC50 (INS1) 0.3 µM
> 30 µM (not active): EC50 [23]
inactive: IC50 (Protein Wnt-3a) 41.3 µM
> 50 µM (not active): IC50 [19] | IC50 [21]

Reference: ChEMBL document CHEMBL1201862, “PubChem BioAssay data set” (2004)
